Laboratory results published in the supplement of paper PMC10307832.

What was measured:
Assay in all cases: relative viability (nuclei count vs DMSO), 5 days (fraction); higher = more cells survive
[1] = test system: NCI-H661
Procedure, shortened: (§1)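 Values are medians from duplicate plates. Each reflects relative viability, defined as the nuclei count of treated wells over that of vehicle wells. Lung cancer cell lines in 1536-well plates were pin-tool dosed one day after seeding with one drug alone or with a fixed anchor-drug dose plus five library-drug doses (not always all listed) in √10 steps, then fixed, stained and imaged at 4× after 5 days.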

[2] = test system: NCI-H2087
Procedure, shortened: as §1

[3] = test system: UMC-11
Procedure, shortened: as §1

[4] = test system: NCI-H596
Procedure, shortened: as §1

[5] = test system: NCI-H1666
Procedure, shortened: as §1

[6] = test system: LCLC-97TM1
Procedure, shortened: as §1

[7] = test system: HCC-15
Procedure, shortened: as §1

[8] = test system: NCI-H1944
Procedure, shortened: as §1

[9] = test system: SK-MES-1
Procedure, shortened: as §1

[10] = test system: NCI-H1651
Procedure, shortened: as §1

[11] = test system: NCI-H2342
Procedure, shortened: as §1

[12] = test system: NCI-H650
Procedure, shortened: as §1

[13] = test system: BEN
Procedure, shortened: as §1

[14] = test system: LC-2-ad
Procedure, shortened: as §1

[15] = test system: PC-3 [JPC-3]
Procedure, shortened: as §1

[16] = test system: NCI-H838
Procedure, shortened: as §1

[17] = test system: NCI-H322M
Procedure, shortened: as §1

[18] = test system: ChaGo-K-1
Procedure, shortened: as §1

[19] = test system: LXF-289
Procedure, shortened: as §1

[20] = test system: NCI-H358
Procedure, shortened: as §1

[21] = test system: LK-2
Procedure, shortened: as §1

[22] = test system: LU99A
Procedure, shortened: as §1

## Oc1nc(-c2ccc(C(F)(F)F)cc2)nc2c1CSCC2 [XAV939] + CCNC(=O)c1noc(-c2cc(C(C)C)c(O)cc2O)c1-c1ccc(CN2CCOCC2)cc1 [Luminespib] (partner 0.01 µM)
[1]; first compound 0.08 µM
  relative viability: 0.894
[1]; first compound 0.253 µM
  relative viability: 0.892
[1]; first compound 0.8 µM
  relative viability: 0.913
[1]; first compound 2.53 µM
  relative viability: 0.933
[2]; first compound 0.08 µM
  relative viability: 0.165
[2]; first compound 0.253 µM
  relative viability: 0.128
[2]; first compound 0.8 µM
  relative viability: 0.152
[2]; first compound 2.53 µM
  relative viability: 0.142
[3]; first compound 0.08 µM
  relative viability: 1.04
[3]; first compound 0.253 µM
  relative viability: 0.973
[3]; first compound 0.8 µM
  relative viability: 1.02
[3]; first compound 2.53 µM
  relative viability: 0.886
[4]; first compound 0.08 µM
  relative viability: 1.06
[4]; first compound 0.253 µM
  relative viability: 0.881
[4]; first compound 0.8 µM
  relative viability: 1.13
[4]; first compound 2.53 µM
  relative viability: 0.873
[5]; first compound 0.08 µM
  relative viability: 1.07
[5]; first compound 0.253 µM
  relative viability: 0.666
[5]; first compound 0.8 µM
  relative viability: 0.981
[5]; first compound 2.53 µM
  relative viability: 0.848
[6]; first compound 0.08 µM
  relative viability: 0.977
[6]; first compound 0.253 µM
  relative viability: 0.763
[6]; first compound 0.8 µM
  relative viability: 0.835
[6]; first compound 2.53 µM
  relative viability: 0.765
[7]; first compound 0.08 µM
  relative viability: 0.465
[7]; first compound 0.253 µM
  relative viability: 0.295
[7]; first compound 0.8 µM
  relative viability: 0.302
[7]; first compound 2.53 µM
  relative viability: 0.235
[8]; first compound 0.08 µM
  relative viability: 0.843
[8]; first compound 0.253 µM
  relative viability: 0.676
[8]; first compound 0.8 µM
  relative viability: 0.788
[8]; first compound 2.53 µM
  relative viability: 0.595
[9]; first compound 0.08 µM
  relative viability: 0.915
[9]; first compound 0.253 µM
  relative viability: 0.726
[9]; first compound 0.8 µM
  relative viability: 0.654
[9]; first compound 2.53 µM
  relative viability: 0.48
[10]; first compound 0.08 µM
  relative viability: 0.988
[10]; first compound 0.253 µM
  relative viability: 0.699
[10]; first compound 0.8 µM
  relative viability: 0.896
[10]; first compound 2.53 µM
  relative viability: 0.725
[11]; first compound 0.08 µM
  relative viability: 0.645
[11]; first compound 0.253 µM
  relative viability: 0.601
[11]; first compound 0.8 µM
  relative viability: 0.546
[11]; first compound 2.53 µM
  relative viability: 0.402
[12]; first compound 0.08 µM
  relative viability: 0.858
[12]; first compound 0.253 µM
  relative viability: 0.75
[12]; first compound 0.8 µM
  relative viability: 0.93
[12]; first compound 2.53 µM
  relative viability: 0.745
[13]; first compound 0.08 µM
  relative viability: 0.237
[13]; first compound 0.253 µM
  relative viability: 0.211
[13]; first compound 0.8 µM
  relative viability: 0.334
[13]; first compound 2.53 µM
  relative viability: 0.262
[14]; first compound 0.08 µM
  relative viability: 1.2
[14]; first compound 0.253 µM
  relative viability: 0.938
[14]; first compound 0.8 µM
  relative viability: 0.973
[14]; first compound 2.53 µM
  relative viability: 0.853
[15]; first compound 0.08 µM
  relative viability: 0.829
[15]; first compound 0.253 µM
  relative viability: 0.647
[15]; first compound 0.8 µM
  relative viability: 0.68
[15]; first compound 2.53 µM
  relative viability: 0.635
[16]; first compound 0.08 µM
  relative viability: 0.338
[16]; first compound 0.253 µM
  relative viability: 0.37
[16]; first compound 0.8 µM
  relative viability: 0.325
[16]; first compound 2.53 µM
  relative viability: 0.304
[17]; first compound 0.08 µM
  relative viability: 1.06
[17]; first compound 0.253 µM
  relative viability: 0.808
[17]; first compound 0.8 µM
  relative viability: 0.86
[17]; first compound 2.53 µM
  relative viability: 0.552
[18]; first compound 0.08 µM
  relative viability: 0.586
[18]; first compound 0.253 µM
  relative viability: 0.384
[18]; first compound 0.8 µM
  relative viability: 0.508
[18]; first compound 2.53 µM
  relative viability: 0.523
[19]; first compound 0.08 µM
  relative viability: 0.727
[19]; first compound 0.253 µM
  relative viability: 0.681
[19]; first compound 0.8 µM
  relative viability: 0.778
[19]; first compound 2.53 µM
  relative viability: 0.729
[20]; first compound 0.08 µM
  relative viability: 0.289
[20]; first compound 0.253 µM
  relative viability: 0.32
[20]; first compound 0.8 µM
  relative viability: 0.293
[20]; first compound 2.53 µM
  relative viability: 0.412
[21]; first compound 0.08 µM
  relative viability: 0.202
[21]; first compound 0.253 µM
  relative viability: 0.183
[21]; first compound 0.8 µM
  relative viability: 0.192
[21]; first compound 2.53 µM
  relative viability: 0.167
[22]; first compound 0.08 µM
  relative viability: 0.277
[22]; first compound 0.253 µM
  relative viability: 0.253
[22]; first compound 0.8 µM
  relative viability: 0.254
[22]; first compound 2.53 µM
  relative viability: 0.195
